Results published in ChEMBL document CHEMBL1201862, “PubChem BioAssay data set” (2004).
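Where inhibition never reached the appropriate level, the endpoint shown equals the highest concentration tested. Otherwise, values were interpolated linearly from a five-concentration, 48-hour dose response in 96-well plates. Here, GI50 denotes the concentration required for 50% inhibition of growth.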 Calls of active or inactive are those of the source. Cut-off read from the data, not from the text of the source: active = GI50 up to about 1.1 µM and inactive = higher.

Key:
Experiment in all cases: growth of human tumour cells (NCI), 48 h
786-0 = system: 786-0
A498 = system: A498
A549 = system: A549
ACHN = system: ACHN
BT-549 = system: BT-549
COLO 205 = system: COLO 205
DU-145 = system: DU-145
EKVX = system: EKVX
HCC 2998 = system: HCC 2998
HCT-116 = system: HCT-116
HCT-15 = system: HCT-15
HOP-62 = system: HOP-62
Hs-578T = system: Hs-578T
K562 = system: K562
KM12 = system: KM12
LOX IMVI = system: LOX IMVI
M14 = system: M14
MCF7 = system: MCF7
MDA-MB-231 = system: MDA-MB-231
MDA-MB-435 = system: MDA-MB-435
MDA-N = system: MDA-N
MOLT-4 = system: MOLT-4
NCI-H226 = system: NCI-H226
NCI-H23 = system: NCI-H23
NCI-H460 = system: NCI-H460
NCI/ADR-RES = system: NCI/ADR-RES
OVCAR-3 = system: OVCAR-3
OVCAR-4 = system: OVCAR-4
OVCAR-5 = system: OVCAR-5
OVCAR-8 = system: OVCAR-8
PC-3 = system: PC-3
RPMI-8226 = system: RPMI-8226
RXF 393 = system: RXF 393
SF-268 = system: SF-268
SF-295 = system: SF-295
SK-MEL-28 = system: SK-MEL-28
SK-MEL-2 = system: SK-MEL-2
SK-OV-3 = system: SK-OV-3
SN12C = system: SN12C
SNB-19 = system: SNB-19
SNB-75 = system: SNB-75
SR = system: SR
SW-620 = system: SW-620
T47D = system: T47D
TK-10 = system: TK-10
U-251 = system: U-251
UACC-257 = system: UACC-257
UACC-62 = system: UACC-62
UO-31 = system: UO-31
CAKI-1 = system: CAKI-1
CCRF-CEM = system: CCRF-CEM
HL-60 = system: HL-60
HOP-92 = system: HOP-92
HT-29 = system: HT-29
IGROV-1 = system: IGROV-1
Malme-3M = system: Malme-3M
NCI-H522 = system: NCI-H522
SF-539 = system: SF-539
SK-MEL-5 = system: SK-MEL-5

Measured: GI50

O=C(O)CCC(/N=C(\C(=N\C(CCC(=O)O)C(=O)O)c1ccccc1)c1ccccc1)C(=O)O (stereo unspecified)
inactive: 786-0 > 100 µM | A498 > 100 µM | A549 > 100 µM | ACHN > 100 µM | BT-549 90.2 µM | COLO 205 > 100 µM | DU-145 > 100 µM | EKVX > 100 µM | HCC 2998 > 100 µM | HCT-116 > 100 µM | HOP-62 > 100 µM | Hs-578T > 100 µM | K562 > 100 µM | KM12 > 100 µM | LOX IMVI > 100 µM | M14 > 100 µM | MCF7 > 100 µM | MDA-MB-231 > 100 µM | MDA-MB-435 > 100 µM | MDA-N > 100 µM | MOLT-4 > 100 µM | NCI-H226 > 100 µM | NCI-H23 > 100 µM | NCI-H460 > 100 µM | NCI/ADR-RES > 100 µM | OVCAR-3 > 100 µM | OVCAR-4 > 100 µM | OVCAR-5 > 100 µM | OVCAR-8 > 100 µM | PC-3 > 100 µM | RPMI-8226 > 100 µM | RXF 393 > 100 µM | SF-268 > 100 µM | SF-295 > 100 µM | SK-MEL-28 > 100 µM | SK-MEL-2 > 100 µM | SK-OV-3 > 100 µM | SN12C > 100 µM | SNB-19 > 100 µM | SNB-75 > 100 µM | SR > 100 µM | SW-620 > 100 µM | T47D > 100 µM | TK-10 > 100 µM | U-251 > 100 µM | UACC-257 > 100 µM | UACC-62 > 100 µM | UO-31 > 100 µM
> 100 µM: HCT-15

COC(CNC(=O)CNC(=O)c1ccc(C(F)(F)F)cc1)OC
inactive: 786-0 > 100 µM | A549 > 100 µM | ACHN > 100 µM | BT-549 > 100 µM | CAKI-1 > 100 µM | CCRF-CEM > 100 µM | COLO 205 > 100 µM | DU-145 > 100 µM | EKVX > 100 µM | HCT-116 > 100 µM | HL-60 > 100 µM | HOP-92 > 100 µM | HT-29 > 100 µM | Hs-578T > 100 µM | IGROV-1 > 100 µM | K562 > 100 µM | KM12 > 100 µM | M14 > 100 µM | MCF7 > 100 µM | MDA-MB-231 > 100 µM | MDA-MB-435 > 100 µM | MDA-N > 100 µM | MOLT-4 > 100 µM | Malme-3M > 100 µM | NCI-H226 > 100 µM | NCI-H23 > 100 µM | NCI-H460 > 100 µM | NCI-H522 > 100 µM | NCI/ADR-RES > 100 µM | OVCAR-5 > 100 µM | OVCAR-8 > 100 µM | PC-3 > 100 µM | RPMI-8226 > 100 µM | RXF 393 > 100 µM | SF-268 > 100 µM | SF-295 > 100 µM | SF-539 > 100 µM | SK-MEL-2 > 100 µM | SK-MEL-5 > 100 µM | SK-OV-3 > 100 µM | SN12C > 100 µM | SNB-19 47.9 µM | SNB-75 > 100 µM | SR > 100 µM | SW-620 > 100 µM | T47D > 100 µM | TK-10 > 100 µM | U-251 > 100 µM | UACC-257 > 100 µM | UACC-62 > 100 µM | UO-31 > 100 µM
> 100 µM: HCT-15
